Test results from patent publication US10227324B2 (Shanghai Haiyan Pharmaceutical Technology Co., Ltd., priority 2014, dated 2019).
Where two headings read alike, the source gives them in different places.

How the values were obtained:
[1] = Metabolism stability assay in liver microsomes; format: in vitro ADME, mouse; conditions: liver microsomal metabolism in mice
Protocol: Buffer A: 1 L solution of 100 mM potassium dihydrogen phosphate containing 1 mM EDTA (Sigma, V900157-100G) was prepared. Buffer B: 1 L solution of 100 mM dipotassium hydrogen phosphate containing 1 mM EDTA was prepared. Buffer C: 700 mL of buffer B was taken out and titrated with buffer A to pH 7.4.
2.1 10 μl of 10 mM compound to be tested and 10 μl of 10 mM ketanserin were taken out and 190 μl of pure acetonitrile was added to each of them to prepare 500 μM compound to be tested and ketanserin, respectively.
2.2 20 μl (20 mg/mL) of liver microsomes (XENOTECH, H0610) stock solution was added to 513.4 μl of buffer C on wet ice. 0.75 mg/mL liver microsomal solution was obtained.
2.3 1.5 μl of each of the above-mentioned compound to be tested and ketanserin solution was added to 498.5 μl of liver microsomal solution (0.7 5 mg/mL) respectively on wet ice. 1.5 μM mixed solution of compound to be tested and 1.5 μM mixed solution of ketanserin were obtained.
2.4 At the time points 0, 5, 15, 30, 45, and 60 min, 30 μl of the mixed solution of compound to be tested and 30 μl of the mixed solution of ketanserin were dispensed into the reaction plate on wet ice, respectively.
2.5 5 mg reduced coenzyme II (Roche, 10621706001) was weighed and dissolved in 1 mL of buffer C. 6 mM reduced coenzyme II solution was obtained. The reduced coenzyme II solution was dispensed into the reaction plate.
2.6 Imipramine was dissolved to give a 10 mM solution. 10 μl imipramine solution was added to 100 mL of blank acetonitrile to generate the internal reference.
2.7 At 0 min, 135 μL of iced acetonitrile (Merck, UN 1648) containing the internal reference was added to each well and then 15 μL of buffer C was added.
2.8 The reaction plate was placed into a 37° C. water bath incubator for 5 min. In the reaction plate, 15 μL of reduced coenzyme II solution was added to each well to initiate the reaction, and the time keeping was started. At the time points of 5, 15, 30, 45, and 60 min, 135 μL of iced acetonitrile containing the internal reference was added to each well to terminate the reaction.
2.9 The reaction plate was sealed with an aluminum film, placed on a vibration mixer and shaken at 500 rpm for 5 min. The plate was then centrifuged in a centrifuge at 3750 rp for 15 min.
2.10 The sample was diluted with pure water in accordance with the ratio of 1:1 and detected by LC/MS.
Half-life: 0.693/K (the slope by plotting based on the incubation time and logarithm of the concentration value)
Clearance ratio: (0.693/half-life)*(1/protein concentration (0.5 mg/mL))*(proportional factor)
Wherein, the K value and the proportional factor were calculated by those skilled in the art according to the methods described in the prior art and contained in the instructions of the liver microsome product.

[2] = system: T47D cells; experiment: Cell inhibitory activity detected by MTT assay, T47D; format: cell-based; conditions: Homo sapiens, T47D, 72 h, read-out: T47D cell (IC50/nM), cell growth inhibition
[3] = system: Akt phosphorylation (Ser473-p-Akt) in PC-3 cells; experiment: Inhibition of p-Akt phosphorylation level in PC-3 cells (cell level fluorescence imaging); format: cell-based; conditions: Homo sapiens, read-out: PC-3 cell (IC50/nM)
Protocol: This experiment was performed by cell level fluorescence image processing method.
Triton X-100: 10% aqueous Triton X-100 solution (Sigma T8787-100 mL) was prepared, stored at 4° C. and diluted by 1:100 to give 0.1% Triton X-100 aqueous solution for use in the experiment.
Prodium Iodide (PI): 1 mg/mL (1.5 mM) PI (Sigma P4170) storage solution was prepared with PBS and stored at −25° C. in the dark. For use, the PI storage solution was diluted with PBS by 1:1000 to give a 1.5 μM solution and used in dark.
PC-3 cells in logarithmic growth phase were digested with 0.25% EDTA trypsin. 3000 cells/90 μL were seeded in a 96-well plate (BD 356692) and cultured at 37° C. and 5% CO2. After the cells adhered, 10 μL of the compound to be tested which was gradiently diluted 3 times (0.0046 to 10 μM, 8 concentration points, in duplicate) was added and incubated for 2 hours, followed by addition of 100 μL of 4% paraformaldehyde (DINGGUO AR-0211) and incubated at room temperature for 45 minutes. Then 100 μL of 0.1% Triton X-100 solution was added and incubated for another 30 minutes.
Triton X-100 solution was removed and the cells were rinsed with 200 μl of PBS twice (300 rpm vibration for 1 minute). The blocking solution (1% BSA solution in PBS) (Genview FA016-100G) was added and incubated at room temperature for 2 hours. The plate was rinsed with PBS once (300 rpm, 1 min) and 30 μL of Ser473-p-Akt antibody (cell signaling 4060L) diluted with 0.1% BSA was added and incubated overnight at 4° C. Ser473-p-Akt antibody was removed and the plate was rinsed with PBS twice (300 rpm, 1 minute). 35 μL of Alexa Flour 488 donkey anti-rabbit IgG (Invitrogen A21206) was added and incubated at room temperature for 1.5 hours. The plate was rinsed with PBS twice (300 rpm, 1 minute) and 35 μL of 1.5 μM PI was added and incubated at room temperature for 0.5 h. The fluorescence intensity was measured with Acumen eX3 (TTP LabTech).
10 μM BEZ235 (Selleck S1009) treatment group was negative control and DMSO treatment group was positive control. Inhibition ratio %=[1−(the mean value of the fluorescence intensity of the compound to be tested−the mean value of the fluorescence intensity of the negative control group)/(the mean value of the fluorescence intensity of the positive control group−the mean value of the fluorescence intensity of the negative control group)]×100%

[4] = Akt phosphorylation in PC-3 cells, 2 hours incubation

Compound | Clearance ratio (mL/min/kg) mouse [1] [mL/min/kg] | IC50 [2] [nM] | IC50 [3, 4] [nM] | IC50 ([3]; PC-3, 2 h) [nM]
Nc1cc(C(F)(F)F)c(-c2cc(C3(S(=O)(=O)c4ccccc4)CCC3)nc(N3CCOCC3)n2)cn1 [Compound S-20] | 5641.44 | 332 |  | 
CS(=O)(=O)C1(c2cc(-c3cnc(N)cc3Cl)nc(N3CCOCC3)n2)CC1 [Compound S-37, 4-chloro-5-(6-(1-(methylsulfonyl)cyclopropyl)-2-morpholinopyrimidin-4-yl)pyridin-2-amine] |  | 202 | 198 | 
CC(C)(c1cc(-c2cnc(N)cc2Cl)nc(N2CCOCC2)n1)S(C)(=O)=O [Compound S-38, 4-chloro-5-(6-(2-(methylsulfonyl)prop-2-yl)-2-morpholinopyrimidin-4-yl)pyridin-2-amine] | 103.77 | 244 | 332 | 
CS(=O)(=O)C(F)(F)c1cc(-c2cnc(N)cc2Cl)nc(N2CCOCC2)n1 [Compound S-54, 4-chloro-5-(6-(difluoro(methylsulfonyl)methyl)-2-morpholinopyrimidin-4-yl)pyridin-2-amine] |  | 255 | 488 | 
Nc1cc(C(F)(F)F)c(-c2cc(C3(S(=O)(=O)c4ccccc4F)CC3)nc(N3CCOCC3)n2)cn1 [Compound S-58] |  | 129 | 367 | 
Nc1cc(Cl)c(-c2cc(C3(S(=O)(=O)c4ccccc4F)CC3)nc(N3CCOCC3)n2)cn1 [Compound S-66] |  | 147 | 253 | 
C[C@@H]1COCCN1c1nc(-c2cnc(N)cc2Cl)cc(C(C)(C)S(C)(=O)=O)n1 [Compound S-67] |  | 88 | 187 | 
COC(C)(C)c1cc(-c2cnc(N)cc2C(F)(F)F)nc(N2CCOCC2)n1 [Compound S-71, 5-(6-(2-methoxypropan-2-yl)-2-morpholinopyrimidin-4-yl)-4-(trifluoromethyl) pyridin-2-amine] |  | 165 |  | 555
COC(C)(C)c1cc(-c2cnc(N)cc2Cl)nc(N2CCOC[C@@H]2C)n1 [Compound S-75] |  | 249 | 385 | 
COC(C)(C)c1cc(-c2cnc(N)cc2Cl)nc(N2CCOCC2)n1 [Compound S-76] |  | 289 | 531 | 
CC(C)(c1cc(-c2cnc(N)cc2F)nc(N2CCOCC2)n1)S(C)(=O)=O [Compound S-81] |  | 123 | 215 | 
CCS(=O)(=O)C1(c2cc(-c3cnc(N)cc3F)nc(N3CCOCC3)n2)CC1 [Compound S-85] |  | 63 | 161 | 
CC(C)S(=O)(=O)C1(c2cc(-c3cnc(N)cc3F)nc(N3CCOCC3)n2)CC1 [Compound S-86] |  | 69 | 240 | 
Nc1cc(F)c(-c2cc(C3(S(=O)(=O)C4CC4)CC3)nc(N3CCOCC3)n2)cn1 [Compound S-88] |  | 81 | 349 | 

Continued, in another order:

Clearance ratio (mL/min/kg) mouse [1] [mL/min/kg] | IC50 [2] [nM] | IC50 [3, 4] [nM] | Compound | IC50 ([3]; PC-3, 2 h) [nM]
442.63 | 124 | 248 | CS(=O)(=O)C1(c2cc(-c3cnc(N)cc3C(F)(F)F)nc(N3CCOCC3)n2)CCC1 [Compound S-4] | 
 | 93 | 184 | C[C@H]1COCCN1c1nc(-c2cnc(N)cc2C(F)(F)F)cc(C2(S(C)(=O)=O)CCC2)n1 [Compound S-9] | 
 | 218 | 384 | CS(=O)(=O)C1(c2cc(-c3cnc(N)cc3C(F)(F)F)nc(N3CCOCC3)n2)CCCC1 [Compound S-10] | 
 | 244 | 463 | CC(C)S(=O)(=O)C1(c2cc(-c3cnc(N)cc3C(F)(F)F)nc(N3CCOC[C@@H]3C)n2)CCC1 [Compound S-13, (S)-5-(6-(1-(isopropylsulfonyl)cyclobutyl)-2-(3-methylmorpholino)pyrimidin-4-yl)-4-(trifluoromethyl)pyridin-2-amine] | 
 | 160 | 430 | CC(C)S(=O)(=O)C1(c2cc(-c3cnc(N)cc3C(F)(F)F)nc(N3CCOCC3)n2)CC1 [Compound S-18] | 
 | 178 | 575 | CC(C)S(=O)(=O)C1(c2cc(-c3cnc(N)cc3C(F)(F)F)nc(N3CCOCC3)n2)CCC1 [Compound S-19] | 
 | 20 | 366 | CCS(=O)(=O)C1(c2cc(-c3cnc(N)cc3C(F)(F)F)nc(N3CCOC[C@@H]3C)n2)CCC1 [Compound S-23] | 
 | 100 | 101 | C[C@H]1COCCN1c1nc(-c2cnc(N)nc2C(F)(F)F)cc(C2(S(C)(=O)=O)CCC2)n1 [Compound S-30] | 
 | 73 | 126 | C[C@H]1COCCN1c1nc(-c2cnc(N)cc2Cl)cc(C2(S(C)(=O)=O)CCC2)n1 [Compound S-31] | 
 | 95 | 74 | C[C@H]1COCCN1c1nc(-c2ccc(N)nc2)cc(C2(S(C)(=O)=O)CCC2)n1 [Compound S-32] | 
 | 120 | 109 | C[C@H]1COCCN1c1nc(-c2cnc(N)nc2)cc(C2(S(C)(=O)=O)CCC2)n1 [Compound S-33] | 
 | 148 | 414 | C[C@H]1COCCN1c1nc(-c2cnc(N)cc2C(F)(F)F)cc(C(C)(C)S(C)(=O)=O)n1 [Compound S-41] | 
89.54 | 163 | 156 | CC(C)(c1cc(-c2cnc(N)nc2C(F)(F)F)nc(N2CCOCC2)n1)S(C)(=O)=O [Compound S-45] | 
100.1 | 137 | 131 | CS(=O)(=O)C1(c2cc(-c3cnc(N)nc3C(F)(F)F)nc(N3CCOCC3)n2)CC1 [Compound S-46] | 
 | 208 | 382 | CCS(=O)(=O)C1(c2cc(-c3cnc(N)cc3C(F)(F)F)nc(N3CCOCC3)n2)CCC1 [Compound S-49, 5-(6-(1-(ethylsulfonyl)cyclobutyl)-2-morpholinopyrimidin-4-yl)-4-(trifluoromethyl)pyridin-2-amine] | 
 | 73 | 183 | C[C@@H]1COCCN1c1nc(-c2cnc(N)cc2Cl)cc(C2(S(C)(=O)=O)CC2)n1 [Compound S-68] | 
 | 30 | 196 | C[C@H]1COCCN1c1nc(-c2cnc(N)cc2F)cc(C2(S(C)(=O)=O)CC2)n1 [Compound S-83] | 
 | 33 | 121 | C[C@H]1COCCN1c1nc(-c2cnc(N)cc2F)cc(C(C)(C)S(C)(=O)=O)n1 [Compound S-84] | 
 | 854 | 1020 | CS(=O)(=O)C1(c2cc(N3CCOCC3)nc(-c3cnc(N)cc3C(F)(F)F)n2)CC1 [reference compound] | 
